Data as given in US7611691B2, “Compounds for treatment of copper overload” (The Curators of the University of Missouri, priority 2002, dated 2009).

Key:
[1] = Reduction of copper levels in swine after oral Cu loading; type: in vivo; conditions: 15 mg/kg twice daily for three days
Description: Eight weanling pigs weighing 10-12 kg were randomly assigned to one of three groups, receiving no thpalanine (N=2), thpalanine via gavage (N=3) or thpalanine intravenously (N=3). All eight pigs underwent 21 consecutive days of oral Cu loading with 10 mg of Cu from copper sulfate per kg of body weight twice daily. Loading was determined by protocol in Mineral Tolerance of Domestic Animals. Pigs also received 10 mg/kg body weight of Cu in their diet. After 21 days dosing with copper sulfate was discontinued. Thpalanine was given to the two drug-treated groups beginning two days following the end of Cu loading. Each of the thpalanine treatment groups (oral and intravenous) received 15 mg thpalanine per kg body weight twice daily for three consecutive days. Four 24 hour urine collections were done to determine urinary Cu excretion beginning 24 hours prior to thpalanine treatment.
Following day 3 of treatment, the pigs were euthanized and a sample of liver/kidney were collected and stored at −10° F. until copper analyses. Statistical analysis was performed using ANOVA. Multiple pairwise comparisons were made using the Tukey test and statistical significance was set at P<0.05.

[2] = Stability of THPAL in bovine serum albumin (BSA) solution by 31P NMR; type: physicochemical
Description: 50 mg of BSA (3.3%) was dissolved in 1.5 ml of water. 30 mg of THPAL (0.06 M) was added to this to obtain a clear solution. The measurements of stable (or unoxidized) forms of THPAL in BSA were performed using ^31P NMR spectroscopy. The ^31P NMR resonance of THPAL is very sensitive to alterations on the back bone structure. The temperature of the mixture of THPAL and BSA in water was maintained at 9-12° C.
There was no detectable change in the ^31P NMR resonance until 12-15 hours after mixing the THPAL and BSA. After 24 hours, about 20% THPAL was transferred to uncharacterized compound.

[3] = Attempted oxidation of THPAL with molecular oxygen; type: physicochemical; conditions: aerated water, refluxed for several hours under air
Description: THPAL (0.5 g, […]) was dissolved in aerated water (25 ml).

[4] = Oxidation of THPAL using gaseous hydrogen peroxide; type: physicochemical; conditions: aqueous solution exposed to hydrogen peroxide vapors; after two days
[5] = Oxidation of THPAL by 35% aqueous H2O2; type: physicochemical
Description: Hydrogen peroxide (0.2 ml, 35%, […]) was added dropwise to a solution of THPAL (0.5 g, 0.014 mmol) in water at room temperature. The reaction mixture was stirred at room temperature for one hour. The solvent was then removed under reduced pressure. The crude product was washed with methanol (5×4 ml), and then characterized as pure O═P(CH2NHCH(CH3)—COOH)3 by NMR spectroscopy. ^31P{^1H} NMR (D2O): 37.07 (s); ^1H NMR (D2O): 1.60 (d, CH3, 9H), 3.96-3.89 (m. CH2 and CH, 9H); ^13C NMR (D2O): 42.9 (d, P—CH2, JC-P=70.05 Hz), 59.6 (d, NH—CH, ^2JC-P=8.25 Hz), 15.59 (s, CH3), 175.15 (s, COOH).

[6] = Oxygen radical absorbance capacity (ORAC hydro FL); conditions: Fluorescein probe; Trolox calibration standard
Description: (§1) The NORAC value of 18.8 μmolTE/g found for TBPAL (Table 1) is among the highest ever reported for antioxidant drugs.
Trolox, a water-soluble Vitamin E analog, was used as the calibration standard and the ORAC result is expressed as micromole Trolox equivalent (TE) per gram.

[7] = Hydroxyl radical absorbance capacity (HORAC); conditions: Gallic Acid calibration standard
Description: as §1
^+Gallic Acid was used as the calibration standard and the HORAC result is expressed as mg Gallic Acid equivalent (GAE) per gram.

[8] = Nitricoxide radical absorbance capacity (NORAC)
Description: as §1
^Trolox was used as the calibration standard and the NORAC result is expressed as μmole Trolox equivalent (TE) per gram.

time with no detectable change in the 31P NMR resonance after mixing THPAL and BSA ([2]; 3.3% BSA in water, 0.06 M THPAL, 9-12° C.): 12 to 15 h | THPAL transferred to uncharacterized compound ([2]; BSA solution, after 24 hours, 9-12° C.): about 20% | oxidation state of THPAL in BSA solution (31P NMR) ([2]; after 72 hours): remained unoxidized | oxidative stability of THPAL in BSA solution (31P NMR) ([2]; after five days): no oxidation | stability in BSA solutions ([2]; overall conclusion): stable | conversion to O═P(CH2NHCH(CH3)COOH)3 [4]: Complete conversion | oxidation of THPAL to the corresponding oxide by oxygen radicals generated by peroxide [5]: complete oxidation
SMILES: CC(NCP(CNC(C)C(=O)O)CNC(C)C(=O)O)C(=O)O (centres unmarked) [THPAL, 2-[({Bis-[(1-carboxy-ethylamino)-methyl]-phosphanyl}-methyl)-amino]-propionic acid]
copper levels in swine kidneys ([1]; Cu-loaded weanling pigs, intravenous): significantly reduced | adverse effects (clinical observations, rate of gain, gross necropsy) ([1]; pigs, oral or intravenous): no adverse effects | oxidation or decomposition by 31P NMR [3]: did not show any oxidation or detectable decomposition | ORAChydroFL [6]: 31 μmoleTE/g | HORAC [7]: Not Detectable | NORAC value [8]: 18.8 μmolTE/g | NORAC ([8]; Trolox calibration standard): 18.81 μmoleTE/g
